Assay results: ChEMBL document CHEMBL1156956, “Triazines incorporating (R)-3-methylmorpholine are potent inhibitors of the mammalian target of rapamycin (mTOR) with selectivity over PI3Kalpha” (Bioorg Med Chem Lett, 2010)

Tests used:
[1] = biological target: Serine/threonine-protein kinase mTOR (Rattus norvegicus, UniProt P42346); assay: Inhibition of rat brain mTOR assessed as p70S6k-GST protein phosphorylation after 30 mins by ELISA
LNCaP = assay: Growth inhibition of human LNCAP cells after 3 days by MTS assay; format: functional, cell-based; settings: 72 h
[2] = Growth inhibition of human MDA468 cells after 3 days by MTS assay; format: functional, cell-based; settings: MDA-MB-468, 72 h
[3] = biological target: Phosphatidylinositol 4,5-bisphosphate 3-kinase catalytic subunit alpha isoform (Homo sapiens, UniProt P42336); assay: Inhibition of PI3Kalpha assessed as PIP3 accumulation after 24 mins by HTRF assay
Phosphatidylinositol 4,5-bisphosphate 3-kinase catalytic subunit alpha isoform, sequence (P42336 whole entry, canonical isoform): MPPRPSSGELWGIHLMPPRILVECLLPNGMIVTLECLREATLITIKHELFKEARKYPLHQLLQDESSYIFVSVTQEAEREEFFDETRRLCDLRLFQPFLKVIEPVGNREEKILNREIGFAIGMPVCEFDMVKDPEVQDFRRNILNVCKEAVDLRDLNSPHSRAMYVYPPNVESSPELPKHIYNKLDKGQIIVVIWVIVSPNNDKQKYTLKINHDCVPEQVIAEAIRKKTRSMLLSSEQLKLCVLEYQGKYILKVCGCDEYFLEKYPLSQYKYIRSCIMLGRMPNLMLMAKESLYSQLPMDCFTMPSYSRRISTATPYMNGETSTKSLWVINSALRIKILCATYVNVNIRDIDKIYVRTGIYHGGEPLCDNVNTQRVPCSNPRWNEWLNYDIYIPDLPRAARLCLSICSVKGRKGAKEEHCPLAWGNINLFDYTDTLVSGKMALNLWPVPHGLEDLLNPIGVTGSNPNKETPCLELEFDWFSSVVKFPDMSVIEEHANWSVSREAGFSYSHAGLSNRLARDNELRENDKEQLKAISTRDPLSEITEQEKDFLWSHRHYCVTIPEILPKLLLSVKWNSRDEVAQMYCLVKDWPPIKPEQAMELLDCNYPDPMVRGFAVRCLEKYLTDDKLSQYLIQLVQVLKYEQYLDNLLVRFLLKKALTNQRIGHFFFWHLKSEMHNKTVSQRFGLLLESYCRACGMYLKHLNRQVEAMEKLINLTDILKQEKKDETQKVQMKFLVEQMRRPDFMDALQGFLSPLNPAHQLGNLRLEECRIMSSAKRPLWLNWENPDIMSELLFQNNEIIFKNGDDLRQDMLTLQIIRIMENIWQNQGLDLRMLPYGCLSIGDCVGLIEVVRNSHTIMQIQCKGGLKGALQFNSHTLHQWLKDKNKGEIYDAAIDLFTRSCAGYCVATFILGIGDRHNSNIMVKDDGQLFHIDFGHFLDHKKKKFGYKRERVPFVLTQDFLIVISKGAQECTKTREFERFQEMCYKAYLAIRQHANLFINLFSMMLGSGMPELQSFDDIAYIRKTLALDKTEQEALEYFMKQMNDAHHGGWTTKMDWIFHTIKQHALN

IC50 [1] [nM]	IC50 (LNCaP) [nM]	IC50 [3] [nM]	SMILES	IC50 [2] [nM]
0.2	12	–	C[C@@H]1COCCN1c1nc(-c2ccc(NC(=O)Nc3cccnc3)cc2)nc(N2CCOC[C@H]2C)n1	100
1.7	12	–	C[C@@H]1COCCN1c1nc(-c2ccc(NC(=O)Nc3ccc(N4CCN(C)CC4)nc3)cc2)nc(N2CCOC[C@H]2C)n1	40
1.7	< 0.8	–	C[C@@H]1COCCN1c1nc(-c2ccc(NC(=O)Nc3ccc(C(=O)N4CCN(C)CC4)cc3)cc2)nc(N2CCOC[C@H]2C)n1	< 0.8
1.7	16	–	C[C@@H]1COCCN1c1nc(-c2ccc(NC(=O)Nc3ccc(N4CCC(N(C)C)CC4)cc3)cc2)nc(C2CCOCC2)n1	38
0.6	–	–	C[C@@H]1COCCN1c1nc(-c2ccc(NC(=O)Nc3cccnc3)cc2)nc(C2CCOCC2)n1	80
0.2	–	–	C[C@@H]1COCCN1c1nc(-c2ccc(NC(=O)Nc3ccncc3)cc2)nc(N2CCOC[C@H]2C)n1	40
2	21	–	C[C@@H]1COCCN1c1nc(-c2ccc(NC(=O)Nc3ccc(CN(C)C)cc3)cc2)nc(N2CCOC[C@H]2C)n1	50

The next lines start with the molecule.

SMILES	IC50 [1] [nM]	IC50 (LNCaP) [nM]	IC50 [3] [nM]	IC50 [2] [nM]
C[C@@H]1COCCN1c1nc(-c2ccc(NC(=O)Nc3cccnc3)cc2)nc(N2C[C@@H]3C[C@H]2CO3)n1	3.6	250	–	300
C[C@@H]1COCCN1c1nc(-c2ccc(NC(=O)Nc3ccc(N4CCN(C)CC4)cc3)cc2)nc(N2CCOC[C@H]2C)n1	1.1	3	–	10
C[C@@H]1COCCN1c1nc(-c2ccc(NC(=O)Nc3ccc(N4CCC(N(C)C)CC4)cc3)cc2)nc(N2CCOC[C@H]2C)n1	1.9	–	–	80
C[C@@H]1COCCN1c1nc(-c2ccc(NC(=O)Nc3ccc(OCCN(C)C)cc3)cc2)nc(N2CCOC[C@H]2C)n1	0.7	8	314	45
C[C@@H]1COCCN1c1nc(-c2ccc(NC(=O)Nc3ccc(C(=O)N4CCC(N(C)C)CC4)cc3)cc2)nc(N2CCOC[C@H]2C)n1	0.5	–	55	5
C[C@@H]1COCCN1c1nc(-c2ccc(NC(=O)Nc3ccc(C(=O)N(C)C)cc3)cc2)nc(N2CCOC[C@H]2C)n1	0.5	< 0.8	–	< 0.8
C[C@@H]1COCCN1c1nc(-c2ccc(NC(=O)Nc3ccc(N4CCN(C)CC4)nc3)cc2)nc(C2CCOCC2)n1	–	–	–	52
C[C@@H]1COCCN1c1nc(-c2ccc(NC(=O)Nc3ccc(N4CCN(C)CC4)cc3)cc2)nc(C2CCOCC2)n1	0.7	1	–	6
C[C@@H]1COCCN1c1nc(-c2ccc(NC(=O)Nc3ccc(N4CCNCC4)cc3)cc2)nc(C2CCOCC2)n1	0.8	2	–	9
C[C@@H]1COCCN1c1nc(-c2ccc(NC(=O)Nc3ccc(C(=O)N4CCN(C)CC4)cc3)cc2)nc(C2CCOCC2)n1	1	< 0.8	–	< 0.8
CC(C)N1CCN(C(=O)c2ccc(NC(=O)Nc3ccc(-c4nc(C5CCOCC5)nc(N5CCOC[C@H]5C)n4)cc3)cc2)CC1	0.7	< 0.8	–	< 0.8
